Measured values taken from patent publication US20200017495A1, “NOVEL HETEROCYCLIC COMPOUNDS AND THEIR USE IN PREVENTING OR TREATING BACTERIAL INFECTIONS” (priority 2017, published 2020).
Like-named read-outs stand apart in the source and are kept apart here.

Assays:
[1] = target: OXA-15 (Pseudomonas aeruginosa, UniProt Q51574); assay: β-lactamase inhibitory activity, IC50 (nitrocefin hydrolysis); assay type: biochemical
Protocol: (§3) Enzymes were cloned in E. coli expression vector, expressed and purified in house using classical procedures. […] After 30 min of pre-incubation at room temperature, 15 μL of NCF (100 μM final) were finally added in each well. […] Enzyme activity was obtained by subtracting the background from the final signal, and was converted to enzyme inhibition using non inhibited wells. IC50 curves were fitted to a classical Langmuir equilibrium model with Hill slope using XLFIT (IDBS).

[2] = test system: Proteus mirabilis (PMI) isolates; assay: microbe, parasite or virus in culture; assay type: cell-based; settings: Proteus mirabilis, compound alone, read-out: MIC
Protocol: (§1) Method 2: MIC of Compounds Alone and Combined with Antibacterials Against Bacterial Isolates
(§2) Compounds of the present invention were assessed against genotyped bacterial strains (Table 3, 4) alone or in combination with an antibacterial (Table 2). […] Log phase bacterial suspensions were adjusted to a final density of 5.10^5 CFU/mL in cation-adjusted Mueller-Hinton broth (ca-MHB; Becton-Dickinson and Company) and added to each well (98 μL). Microplates were incubated for 16-20 h at 35° C. in ambient air. The MIC of the compounds was defined as the lowest concentration of said compounds that prevented bacterial growth as read by visual inspection. The MIC of ATB at each compound concentration was defined as the lowest concentration of ATB that prevented bacterial growth as read by visual inspection.

[3] = target: CTX-M-15 (Escherichia coli, UniProt Q9EXV5); assay: β-lactamase inhibitory activity, IC50 (nitrocefin hydrolysis); assay type: biochemical
Sequence of CTX-M-15 (Q9EXV5 entry or part of it): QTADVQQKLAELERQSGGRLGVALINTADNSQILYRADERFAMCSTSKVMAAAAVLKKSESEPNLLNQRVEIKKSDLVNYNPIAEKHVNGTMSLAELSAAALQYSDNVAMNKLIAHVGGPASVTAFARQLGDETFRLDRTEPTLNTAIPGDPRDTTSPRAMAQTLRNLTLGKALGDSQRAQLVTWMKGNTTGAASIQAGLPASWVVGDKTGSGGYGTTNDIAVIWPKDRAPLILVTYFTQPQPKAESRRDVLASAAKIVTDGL
Protocol: (§4) Method 1: β-Lactamase Inhibitory Activity, Determination of IC50 (Table 1)
as §3

[4] = target: OXA-23 (Acinetobacter baumannii, UniProt Q9L4P2); assay: as above; assay type: biochemical
Sequence of OXA-23 (Q9L4P2 18-273): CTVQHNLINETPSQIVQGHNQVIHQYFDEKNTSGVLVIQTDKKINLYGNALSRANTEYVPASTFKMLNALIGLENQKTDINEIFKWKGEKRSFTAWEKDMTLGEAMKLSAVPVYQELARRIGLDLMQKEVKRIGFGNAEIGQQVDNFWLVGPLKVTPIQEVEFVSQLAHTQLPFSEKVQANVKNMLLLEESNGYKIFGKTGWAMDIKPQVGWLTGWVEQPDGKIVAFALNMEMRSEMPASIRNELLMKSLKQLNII
Protocol: as §3

[5] = target: SHV-12 (Klebsiella pneumoniae, UniProt P0AD64, E235K/G234S/L31Q); assay: as above; assay type: biochemical; settings: SHV-12; 30 min pre-incubation, nitrocefin 100 μM; read-out: IC50
Sequence of SHV-12 (P0AD64 22-286 L31Q/G234S/E235K): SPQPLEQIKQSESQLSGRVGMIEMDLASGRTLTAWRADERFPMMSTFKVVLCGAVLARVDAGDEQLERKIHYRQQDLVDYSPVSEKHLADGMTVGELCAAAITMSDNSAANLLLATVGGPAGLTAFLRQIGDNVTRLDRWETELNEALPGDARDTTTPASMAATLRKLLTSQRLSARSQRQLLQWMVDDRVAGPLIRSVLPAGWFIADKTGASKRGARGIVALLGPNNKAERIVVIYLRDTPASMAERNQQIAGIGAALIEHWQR
Protocol: as §4, §3

[6] = test system: Providencia stuartii (PST) isolates; assay: MIC of compounds alone and combined with antibacterials, broth microdilution (CLSI); assay type: cell-based; settings: Providencia stuartii; strain PST UFR235; compound alone; read-out: MIC
Protocol: as §1
Compounds of the present invention were assessed against genotyped bacterial strains (Table 3, 4) alone or in combination with an antibacterial (Table 2). […]. Briefly, compounds alone according to the invention were prepared in DMSO and spotted (2 μL each) on sterile polystyrene plates (Corning, 3788). Combinations of compounds and antibiotics dilutions were prepared in DMSO and spotted (1 μL each) on sterile polystyrene plates (Corning, 3788). Log phase bacterial suspensions were adjusted to a final density of 5.10^5 CFU/mL in cation-adjusted Mueller-Hinton broth (ca-MHB; Becton-Dickinson and Company) and added to each well (98 μL). Microplates were incubated for 16-20 h at 35° C. in ambient air. The MIC of the compounds was defined as the lowest concentration of said compounds that prevented bacterial growth as read by visual inspection. The MIC of ATB at each compound concentration was defined as the lowest concentration of ATB that prevented bacterial growth as read by visual inspection.

[7] = target: KPC-2 (Klebsiella pneumoniae, UniProt Q9F663); assay: β-lactamase inhibitory activity, IC50 (nitrocefin hydrolysis); assay type: biochemical
Sequence of KPC-2 (Q9F663 25-293 limits assumed): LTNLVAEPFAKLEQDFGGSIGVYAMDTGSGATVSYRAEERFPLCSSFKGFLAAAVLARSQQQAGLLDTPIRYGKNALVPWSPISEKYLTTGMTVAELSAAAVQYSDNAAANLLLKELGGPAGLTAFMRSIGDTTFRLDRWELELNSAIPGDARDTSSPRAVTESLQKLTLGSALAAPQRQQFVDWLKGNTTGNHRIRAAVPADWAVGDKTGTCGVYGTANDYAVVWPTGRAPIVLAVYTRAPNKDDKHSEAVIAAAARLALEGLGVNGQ
Protocol: as §4, §3

[8] = target: OXA-11 (Pseudomonas aeruginosa, UniProt Q06778); assay: as above; assay type: biochemical
Sequence of OXA-11 (Q06778 21-266): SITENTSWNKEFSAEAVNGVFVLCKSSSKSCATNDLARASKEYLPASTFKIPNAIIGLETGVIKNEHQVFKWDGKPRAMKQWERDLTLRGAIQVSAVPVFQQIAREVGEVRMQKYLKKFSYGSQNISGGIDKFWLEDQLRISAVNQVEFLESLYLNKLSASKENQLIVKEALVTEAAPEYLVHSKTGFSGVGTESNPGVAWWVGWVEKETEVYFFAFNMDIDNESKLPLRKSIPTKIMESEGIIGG
Protocol: as §3

[9] = target: OXA-58 (Acinetobacter baumannii, UniProt Q2TR58); assay: as above; assay type: biochemical
Sequence of OXA-58 (Q2TR58 19-280): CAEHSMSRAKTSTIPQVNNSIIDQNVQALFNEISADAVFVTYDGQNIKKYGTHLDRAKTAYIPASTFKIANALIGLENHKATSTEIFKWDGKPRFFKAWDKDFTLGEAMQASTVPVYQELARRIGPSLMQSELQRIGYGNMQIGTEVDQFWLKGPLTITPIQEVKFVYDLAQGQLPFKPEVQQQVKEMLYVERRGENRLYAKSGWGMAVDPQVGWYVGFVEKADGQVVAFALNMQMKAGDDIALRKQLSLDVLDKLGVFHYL
Protocol: as §3

[10] = target: OXA-40 (Acinetobacter baumannii, UniProt Q8RLA6); assay: as above; assay type: biochemical
Sequence of OXA-40 (Q8RLA6 entry or part of it): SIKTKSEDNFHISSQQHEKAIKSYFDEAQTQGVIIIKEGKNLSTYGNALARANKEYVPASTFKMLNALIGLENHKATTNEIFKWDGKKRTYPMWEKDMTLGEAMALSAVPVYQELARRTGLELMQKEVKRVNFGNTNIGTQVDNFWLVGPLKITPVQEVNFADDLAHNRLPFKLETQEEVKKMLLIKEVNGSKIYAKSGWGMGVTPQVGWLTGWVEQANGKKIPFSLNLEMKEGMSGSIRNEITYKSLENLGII
Protocol: as §3

[11] = target: OXA-1 (Escherichia coli, UniProt P13661); assay: as above; assay type: biochemical
Sequence of OXA-1 (P13661 26-276): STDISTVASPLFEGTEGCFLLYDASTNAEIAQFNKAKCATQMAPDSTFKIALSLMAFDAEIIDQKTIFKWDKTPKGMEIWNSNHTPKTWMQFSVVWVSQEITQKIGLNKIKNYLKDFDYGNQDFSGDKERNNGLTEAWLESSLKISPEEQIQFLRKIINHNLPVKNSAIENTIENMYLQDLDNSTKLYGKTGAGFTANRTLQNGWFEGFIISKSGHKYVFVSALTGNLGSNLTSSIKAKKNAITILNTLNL
Protocol: as §3

[12] = target: PAE ampC (Pseudomonas aeruginosa, UniProt P24735); assay: as above; assay type: biochemical, P. aeruginosa
Sequence of PAE ampC (P24735 27-397): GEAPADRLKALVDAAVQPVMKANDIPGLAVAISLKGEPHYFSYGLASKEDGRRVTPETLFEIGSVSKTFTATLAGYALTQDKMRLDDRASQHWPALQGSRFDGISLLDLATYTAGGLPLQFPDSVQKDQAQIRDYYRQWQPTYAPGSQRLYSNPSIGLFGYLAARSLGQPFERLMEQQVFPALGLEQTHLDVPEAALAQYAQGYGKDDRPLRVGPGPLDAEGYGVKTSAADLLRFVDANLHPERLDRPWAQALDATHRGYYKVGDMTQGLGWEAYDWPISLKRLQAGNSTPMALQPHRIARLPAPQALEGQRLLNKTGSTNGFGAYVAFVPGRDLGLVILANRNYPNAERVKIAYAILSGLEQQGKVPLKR
Protocol: as §3

[13] = target: P99 ampC (Enterobacter cloacae, UniProt P05364); assay: as above; assay type: biochemical
Sequence of P99 ampC (P05364 21-381): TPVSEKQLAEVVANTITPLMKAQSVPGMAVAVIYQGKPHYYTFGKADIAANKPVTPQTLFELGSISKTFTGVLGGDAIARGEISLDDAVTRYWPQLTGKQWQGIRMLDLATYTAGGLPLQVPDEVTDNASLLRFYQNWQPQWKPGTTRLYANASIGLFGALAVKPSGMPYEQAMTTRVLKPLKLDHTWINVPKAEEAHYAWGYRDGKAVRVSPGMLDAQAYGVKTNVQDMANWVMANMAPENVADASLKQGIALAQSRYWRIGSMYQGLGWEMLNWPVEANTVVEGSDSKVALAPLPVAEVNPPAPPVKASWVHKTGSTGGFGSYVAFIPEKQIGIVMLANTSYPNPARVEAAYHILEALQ
Protocol: as §4, §3

[14] = target: SHV-1 (Klebsiella pneumoniae, UniProt P0AD64); assay: as above; assay type: biochemical
Sequence of SHV-1 (P0AD64 22-286): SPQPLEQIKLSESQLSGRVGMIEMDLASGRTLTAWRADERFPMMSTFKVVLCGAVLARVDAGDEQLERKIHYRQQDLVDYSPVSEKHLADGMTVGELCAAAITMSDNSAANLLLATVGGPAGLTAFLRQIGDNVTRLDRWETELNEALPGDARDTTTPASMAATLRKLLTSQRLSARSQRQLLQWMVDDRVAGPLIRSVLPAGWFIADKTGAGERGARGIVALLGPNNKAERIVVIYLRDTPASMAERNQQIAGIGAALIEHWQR
Protocol: as §3

[15] = target: OXA-48 (Klebsiella pneumoniae, UniProt Q6XEC0); assay: as above; assay type: biochemical
Sequence of OXA-48 (Q6XEC0 23-265 limits assumed): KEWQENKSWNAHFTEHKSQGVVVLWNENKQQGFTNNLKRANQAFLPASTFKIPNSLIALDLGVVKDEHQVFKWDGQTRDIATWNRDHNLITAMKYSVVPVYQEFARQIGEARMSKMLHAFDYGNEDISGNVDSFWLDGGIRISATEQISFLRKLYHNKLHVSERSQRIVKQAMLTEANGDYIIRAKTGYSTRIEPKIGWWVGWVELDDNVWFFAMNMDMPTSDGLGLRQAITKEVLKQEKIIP
Protocol: as §3

[16] = target: TEM-1 (Escherichia coli, UniProt P62593); assay: as above; assay type: biochemical
Sequence of TEM-1 (P62593 24-286 limits assumed): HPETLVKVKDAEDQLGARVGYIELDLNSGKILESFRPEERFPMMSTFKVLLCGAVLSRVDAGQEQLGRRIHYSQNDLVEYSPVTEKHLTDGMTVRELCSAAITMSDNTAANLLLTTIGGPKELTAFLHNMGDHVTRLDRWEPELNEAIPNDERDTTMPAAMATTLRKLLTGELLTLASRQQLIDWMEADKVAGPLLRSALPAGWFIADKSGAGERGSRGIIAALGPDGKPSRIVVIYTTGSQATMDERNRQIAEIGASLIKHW
Protocol: as §3

[17] = test system: Enterobacter aerogenes (EAE) isolates; assay: MIC of compounds alone and combined with antibacterials, broth microdilution (CLSI); assay type: cell-based; settings: Klebsiella aerogenes
Protocol: as §1, §2

[18] = test system: Escherichia coli (ECO) isolates; assay: as above; assay type: cell-based; settings: Escherichia coli, compound alone, read-out: MIC
Protocol: as §1, §2

[19] = test system: Klebsiella pneumoniae (KPN) isolates; assay: as above; assay type: cell-based; settings: Klebsiella pneumoniae, compound alone, read-out: MIC
Protocol: as §1, §2

[20] = test system: Serratia marcescens (SMA) isolates; assay: as above; assay type: cell-based; settings: Serratia marcescens; strain SMA UFR143; compound alone; read-out: MIC
Protocol: as §1, §2

[21] = test system: Citrobacter freundii (CFR) isolates; assay: as above; assay type: cell-based; settings: Citrobacter freundii, strain CFR UFR250; compound alone
Protocol: as §1, §2

[22] = target: SAU PC1 (Staphylococcus aureus, UniProt P00807); assay: β-lactamase inhibitory activity, IC50 (nitrocefin hydrolysis); assay type: biochemical, S. aureus; settings: SAU PC1; 30 min pre-incubation, nitrocefin 100 μM; read-out: IC50
Sequence of SAU PC1 (P00807 25-281): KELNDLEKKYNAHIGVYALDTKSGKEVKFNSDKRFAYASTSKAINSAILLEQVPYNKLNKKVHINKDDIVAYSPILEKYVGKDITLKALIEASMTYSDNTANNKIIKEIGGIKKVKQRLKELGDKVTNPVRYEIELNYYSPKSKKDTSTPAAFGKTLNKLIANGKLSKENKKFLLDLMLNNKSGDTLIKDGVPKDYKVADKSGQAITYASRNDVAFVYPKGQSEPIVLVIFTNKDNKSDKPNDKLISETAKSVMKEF
Protocol: as §4, §3

Sequence of OXA-15 (Q51574 22-275): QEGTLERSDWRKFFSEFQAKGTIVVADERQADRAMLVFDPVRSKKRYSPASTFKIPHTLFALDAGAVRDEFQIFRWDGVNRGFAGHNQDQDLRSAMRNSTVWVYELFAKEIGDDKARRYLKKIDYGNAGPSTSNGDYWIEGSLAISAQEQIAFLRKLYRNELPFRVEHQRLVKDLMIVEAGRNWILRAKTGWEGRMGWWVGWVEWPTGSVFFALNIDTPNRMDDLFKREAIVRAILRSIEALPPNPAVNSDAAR

O=C1N2CC=C(c3cnoc3)C(C2)N1OC(F)(F)C(=O)[O-].[Li+] (stereo not drawn) [AF1, Lithium difluoro-(4-isoxazol-4-yl-7-oxo-1,6-diaza-bicyclo[3.2.1]oct-3-en-6-yloxy)-acetate]
IC50 [1]: 24 nM | MIC ([2]; strain PMI UFR126): 8 µg/mL | MIC ([2]; strain PMI UFR127): 4 µg/mL | IC50 [3]: 2.4 nM | IC50 [4]: 110 nM | IC50 [5]: 3.8 nM | MIC [6]: > 32 µg/mL | IC50 [7]: 510 nM | IC50 [8]: 250 nM | IC50 [9]: 15 nM | IC50 [10]: 120 nM | IC50 [11]: 1600 nM | IC50 [12]: 4500 nM | IC50 [13]: 2200 nM | IC50 [14]: 20 nM | IC50 [15]: 3 nM | IC50 [16]: 10 nM | MIC [17]: 32 µg/mL | MIC ([18]; strain ECO 190317): 2 µg/mL | MIC ([18]; strain ECO 190457): 4 µg/mL | MIC ([18]; strain ECO UFR16): 8 µg/mL | MIC ([18]; strain ECO UFR20): 16 µg/mL | MIC ([18]; strain ECO UFR61O): 8 µg/mL | MIC ([18]; strain ECO UFR209): 8 µg/mL | MIC ([19]; strain KPN 110376): > 32 µg/mL | MIC ([19]; strain KPN 131119): > 32 µg/mL | MIC ([19]; strain KPN 190270): > 32 µg/mL | MIC ([19]; strain KPN UFR25): > 32 µg/mL | MIC ([19]; strain KPN UFR66): > 32 µg/mL | MIC ([19]; strain KPN UFR68): > 32 µg/mL | MIC [20]: 32 µg/mL | MIC [21]: > 32 µg/mL | IC50 [22]: 560 nM
